Laboratory results as given in patent US4983328A, “N-(4-(3-aminopropyl)aminobutyl)-2-(ω-gua nidino-fatty-acid-amido(-2-substituted-ethanamide, salt thereof, and process for preparation thereof” (Bristol-Myers Company, priority 1981, dated 1991).
Values after ≈ are worked out from the molar mass of the structure shown.

How the values were obtained:
[1] = cumulative toxicity in mice (maximum tolerated dose, once a day for 6 consecutive days); details: mouse, in vivo, ip, i.p. once a day for 6 consecutive days, total dose, read-out: Maximum Tolerated Dose (total dose not causing death)
Procedure: (§1) In Table 8 median lethal doses (LD50) of typical compounds of this invention are shown, measured in mice upon single intraperitoneal administration, as well as maximum tolerated doses in terms of total dose when a fixed amount per unit body weight was administered intraperitoneally to mice once a day for 6 consecutive days.
**Maximum value of the total dose not causing death when a fixed amount
per unit body weight is administered to mice once a day for 6 consecutive

[2] = tested on: mouse leukemia L-1210 cells; assay: growth inhibitory activity to cancer cells in vitro (L-1210, 48 hours); format: cell-based; details: for inhibition at 5 µg/mL: L1210, 5 mcg/ml; for inhibition at 10 µg/mL: L1210, 10 mcg/ml; for inhibition at 20 µg/mL: L1210, 20 mcg/ml; for inhibition at 40 µg/mL: L1210, 40 mcg/ml; for inhibition at 80 µg/mL: L1210, 80 mcg/ml; for IC50: L1210, L-1210 cells, read-out: 50% inhibitory concentration
Procedure: DBA/2 mice were implanted with 10^5 mouse leukemia L-1210 cells. The ascites collected asceptically from the mice after 4 days of feeding was washed three times with physiological saline to obtain L-1210 cells, which was then suspended in RPMI 1640 culture medium [G. E. Moore, Journal of the American Medical Association, Vol. 199, 519 (1967); H. J. Morton, In Vitro, Vol. 6, 89 (1970)] to which 10% fetal calf serum and 5 μM 2-mercaptoethanol had been added, and the resulting suspension was diluted to 5×10^4 L-1210 cells per 0.9 ml. A microplate carrying 0.9 ml of the cell suspension and 0.1 ml of the culture medium containing the sample being tested was kept in a carbon dioxide incubator at 37° C. After 48 hours of cultivation, the number of cells was measured by means of a Coulter Counter (Coulter Electronics, Inc., U.S.A.) to obtain the growth inhibition (%)=(1--T/C )×100=[1-(number of grown cells in medium containing sample/(number of grown cells in control medium)]×100. The 50% growth inhibitory concentration was calculated from the values of growth inhibition at varied sample concentrations. The results of tests on typical compounds of this invention for the growth inhibition of L-1210 cells were as shown in Table 6.

[3] = tested on: mouse leukemia L-1210; assay: therapeutic effect on implanted cancer in mice (L-1210, survival over 30 days); format: in vivo, mouse (BDF1); details: L1210, ip, 720 h, 6 days; for responders at 0.2 mg/kg / response vs control in vivo at 0.2 mg/kg: 0.20 mg/kg/day i.p.; for responders at 0.2 mg/kg / responders at 0.39 mg/kg / responders at 0.78 mg/kg / responders at 1.56 mg/kg / responders at 3.13 mg/kg / responders at 6.25 mg/kg / responders at 12.5 mg/kg / responders at 25 mg/kg / responders at 50 mg/kg: read-out: Number of mice survived for 30 days (converted); for response vs control in vivo at 0.2 mg/kg / response vs control in vivo at 0.39 mg/kg / response vs control in vivo at 0.78 mg/kg / response vs control in vivo at 1.56 mg/kg / response vs control in vivo at 3.13 mg/kg / response vs control in vivo at 6.25 mg/kg / response vs control in vivo at 12.5 mg/kg / response vs control in vivo at 25 mg/kg / response vs control in vivo at 50 mg/kg: read-out: Prolongation of survival period (%), T/C × 100; for responders at 0.39 mg/kg / response vs control in vivo at 0.39 mg/kg: 0.39 mg/kg/day i.p.; for responders at 0.78 mg/kg / response vs control in vivo at 0.78 mg/kg: 0.78 mg/kg/day i.p.; for responders at 1.56 mg/kg / response vs control in vivo at 1.56 mg/kg: 1.56 mg/kg/day i.p.; for responders at 3.13 mg/kg / response vs control in vivo at 3.13 mg/kg: 3.13 mg/kg/day i.p.; for responders at 6.25 mg/kg / response vs control in vivo at 6.25 mg/kg: 6.25 mg/kg/day i.p.; for responders at 12.5 mg/kg / response vs control in vivo at 12.5 mg/kg: 12.5 mg/kg/day i.p.; for responders at 25 mg/kg / response vs control in vivo at 25 mg/kg: 25 mg/kg/day i.p.; for responders at 50 mg/kg / response vs control in vivo at 50 mg/kg: 50 mg/kg/day i.p.
Description: BDF1 strain male mice (5 weeks old) were each inoculated intraperitoneally with 10^5 mouse leukemia L-1210 cells and treated once a day by intraperitoneal injection with a test compound dissolved in physiological saline for 6 consecutive days beginning from the day of inoculation. The mice were then observed for 30 days to determine the rate of prolongation of survival period=100×T/C=100×(average survival days of treated group)/(average survival days of control group).

[4] = acute toxicity in mice (single intraperitoneal administration); details: mouse, in vivo, ip; mice, single i.p.; read-out: LD50 (median lethal dose on single administration)
Procedure: as §1
*Median lethal dose on single administration.

[5] = read-out: Growth inhibition (%), (1-T/C) × 100

`COC(NC(=O)CCCCCCCCNC(=N)N)C(=O)NCCCCNCCCN` (stereo not shown) [Compound 11, N-[4-(3-aminopropyl)aminobutyl]-2-(9-guanidinononanamido)-2-methoxyethanamide] showed an MTD [1] of over 75 mg/kg, an inhibition at 5 µg/mL [2, 5] of 35% and an inhibition at 10 µg/mL [2, 5] of 52.2%. The inhibition at 20 µg/mL [2, 5] was 59.4%, the inhibition at 40 µg/mL [2, 5] was 71.8% and the inhibition at 80 µg/mL [2, 5] was 77.9%. It also gave an IC50 [2] of 10 µg/mL (≈ 23.3 µM), a responders at 0.2 mg/kg [3] of 0% and a response vs control in vivo at 0.2 mg/kg [3] of 107%. For the same compound, the responders at 0.39 mg/kg [3] was 0%, the response vs control in vivo at 0.39 mg/kg [3] was 143% and the responders at 0.78 mg/kg [3] was 0%. It also gave a response vs control in vivo at 0.78 mg/kg [3] of 200%, a responders at 1.56 mg/kg [3] of 0% and a response vs control in vivo at 1.56 mg/kg [3] of 200%. It also gave a responders at 3.13 mg/kg [3] of 50%, a response vs control in vivo at 3.13 mg/kg [3] of over 357% and a responders at 6.25 mg/kg [3] of 75%. It also gave a response vs control in vivo at 6.25 mg/kg [3] of over 393%, a responders at 12.5 mg/kg [3] of 50% and a response vs control in vivo at 12.5 mg/kg [3] of over 357%. For the same compound, the responders at 25 mg/kg [3] was 0%, the response vs control in vivo at 25 mg/kg [3] was 0% and the responders at 50 mg/kg [3] was 0%. The response vs control in vivo at 50 mg/kg [3] was 0% and the LD50 [4] was 12.5 to 25 mg/kg.

Work on `COC(NC(=O)CCCCCCCNC(=N)N)C(=O)NCCCCNCCCN` (stereo not shown) [Compound 10, N-[4-(3-aminopropyl)aminobutyl]-2-(8-guanidinooctanamido)-2-methoxyethanamide] yielded an MTD [1] of over 75 mg/kg, an inhibition at 5 µg/mL [2, 5] of 19.9% and an inhibition at 10 µg/mL [2, 5] of 28.5%. The inhibition at 20 µg/mL [2, 5] was 36.5%, the inhibition at 40 µg/mL [2, 5] was 52.4% and the inhibition at 80 µg/mL [2, 5] was 62.4%. It also gave an inhibition at 160 µg/mL ([2]; L1210, 160 mcg/ml, read-out: Growth inhibition (%), (1-T/C) × 100) of 79.5%, an IC50 [2] of 39 µg/mL (≈ 93.8 µM) and a responders at 1.56 mg/kg [3] of 0%. It also gave a response vs control in vivo at 1.56 mg/kg [3] of 100%, a responders at 3.13 mg/kg [3] of 0% and a response vs control in vivo at 3.13 mg/kg [3] of 100%. It also gave a responders at 6.25 mg/kg [3] of 0%, a response vs control in vivo at 6.25 mg/kg [3] of 107% and a responders at 12.5 mg/kg [3] of 0%. It also gave a response vs control in vivo at 12.5 mg/kg [3] of 129%, a responders at 25 mg/kg [3] of 0% and a response vs control in vivo at 25 mg/kg [3] of 0%. The responders at 50 mg/kg [3] was 0%, the response vs control in vivo at 50 mg/kg [3] was 0% and the LD50 [4] was 12.5 to 25 mg/kg.

In the case of `N=C(N)NCCCCCCCCC(=O)NC(O)C(=O)NCCCCNCCCN` (stereo not shown) [Compound 6, N-[4-(3-aminopropyl)aminobutyl]-2-(9-guanidinononanamido)-2-hydroxyethanamide], the MTD [1] is reported as over 75 mg/kg, the inhibition at 1.25 µg/mL ([2]; L1210, 1.25 mcg/ml, read-out: Growth inhibition (%), (1-T/C) × 100) is reported as 38% and the inhibition at 2.5 µg/mL ([2]; L1210, 2.5 mcg/ml, read-out: Growth inhibition (%), (1-T/C) × 100) is reported as 40.3%. The inhibition at 5 µg/mL [2, 5] was 45.5%, the inhibition at 10 µg/mL [2, 5] was 50.3% and the inhibition at 20 µg/mL [2, 5] was 57.5%. It also gave an IC50 [2] of 8 µg/mL (≈ 19.3 µM), a responders at 0.2 mg/kg [3] of 50% and a response vs control in vivo at 0.2 mg/kg [3] of over 354%. The responders at 0.39 mg/kg [3] was 50%, the response vs control in vivo at 0.39 mg/kg [3] was over 383% and the responders at 0.78 mg/kg [3] was 100%. For the same compound, the response vs control in vivo at 0.78 mg/kg [3] was over 429%, the responders at 1.56 mg/kg [3] was 75% and the response vs control in vivo at 1.56 mg/kg [3] was over 393%. It also gave a responders at 3.13 mg/kg [3] of 50%, a response vs control in vivo at 3.13 mg/kg [3] of over 386% and a responders at 6.25 mg/kg [3] of 100%. For the same compound, the response vs control in vivo at 6.25 mg/kg [3] was over 429%, the responders at 12.5 mg/kg [3] was 100% and the response vs control in vivo at 12.5 mg/kg [3] was over 429%. For the same compound, the responders at 25 mg/kg [3] was 0%, the response vs control in vivo at 25 mg/kg [3] was 0% and the responders at 50 mg/kg [3] was 0%. For the same compound, the response vs control in vivo at 50 mg/kg [3] was 0% and the LD50 [4] was 12.5 to 25 mg/kg.
